US20190194179A1, “ANTIBIOTIC COMPOUNDS” (DISCUVA LTD., priority 2016, published 2019)

Test system: Neisseria gonorrhoeae
Assay: EC50 determination: plate-based broth growth assay (absorbance at 600 nm) of Neisseria gonorrhoeae
Assay type: cell-based
Settings: absorbance 600 nm after 20 hours at 37° C./5% CO2, read-out: IC50 (Inhibitory concentration) against Neisseria gonorrhoeae
In short: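 Mid-log culture diluted to ~10^5 cells/ml as inoculum and grown 20 hours at 37° C./5% CO2 across a 10-point compound dilution series. Growth read as absorbance at 600 nm; EC50 taken from transformed data as the concentration giving 50% response relative to no-compound controls.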

SMILES | IC50
FC(F)(F)c1ccc2oc(Nc3ncns3)nc2c1 [Example 23, N-(1,2,4-Thiadiazol-5-yl)-5-(trifluoromethyl)benzo[d]oxazol-2-amine] | ≤ 1000 nM
NC(=O)c1nnc(Nc2nc3ccc(Cl)cc3o2)o1 [Example 200, 5-((6-Chlorobenzo[d]oxazol-2-yl)amino)-1,3,4-oxadiazole-2-carboxamide] | ≤ 100000 nM
FC(F)(F)c1ccc2oc(Nc3nc4ccncc4o3)nc2c1 [Example 59, N-(5-(triFluoromethyl)benzo[d]oxazol-2-yl)oxazolo[5,4-c]pyridin-2-amine] | ≤ 1000 nM
CC(C)(C)c1csc(Nc2nc3cc(C(F)(F)F)ccc3o2)n1 [Example 13, N-(4-(tert-butyl)thiazol-2-yl)-5-(trifluoromethyl)benzo[d]oxazol-2-amine] | ≤ 10000 nM
FC(F)(F)c1ccc2oc(Nc3nnc(CN4CCCCC4)o3)nc2c1 [Example 72, N-(5-(Piperidin-1-ylmethyl)-1,3,4-oxadiazol-2-yl)-5-(trifluoromethyl)benzo[d]oxazol-2-amine] | ≤ 1000 nM
FC(F)(F)c1ccc2[nH]c(Nc3nnco3)nc2c1 [Example 68, N-(5-(Trifluoromethyl)-1H-benzo[d]imidazol-2-yl)-1,3,4-oxadiazol-2-amine] | ≤ 1000 nM
Cc1nnc(Nc2nc3c(C(F)(F)F)cccc3o2)o1 [Example 118, N-(5-Methyl-1,3,4-oxadiazol-2-yl)-4-(trifluoromethyl)benzo[d]oxazol-2-amine] | ≤ 10000 nM
Fc1cc2nc(Nc3nnco3)oc2cc1OC(F)(F)F [Example 174, 5-Fluoro-N-(1,3,4-oxadiazol-2-yl)-6-(trifluoromethoxy)benzo[d]oxazol-2-amine] | ≤ 100 nM
FC(F)(F)c1ccc2oc(Nc3nnc(CN4CCCC4)o3)nc2c1 [Example 71, N-(5-(Pyrrolidin-1-ylmethyl)-1,3,4-oxadiazol-2-yl)-5-(trifluoromethyl)benzo[d]oxazol-2-amine] | ≤ 1000 nM
CN(C)Cc1nnc(Nc2nc3cc(C(F)(F)F)ccc3o2)o1 [Example 82, N-(5-((Dimethylamino)methyl)-1,3,4-oxadiazol-2-yl)-5-(trifluoromethyl)benzo[d]oxazol-2-amine] | ≤ 1000 nM
COC(=O)c1ccc2oc(Nc3nnc(C)o3)nc2c1 [Example 44, Methyl 2-((5-methyl-1,3,4-oxadiazol-2-yl)amino)benzo[d]oxazole-5-carboxylate] | ≤ 100 nM
C#Cc1nnc(Nc2nc3ccc(Cl)cc3o2)o1 [Example 194, 6-Chloro-N-(5-ethynyl-1,3,4-oxadiazol-2-yl)benzo[d]oxazol-2-amine] | ≤ 100 nM
Clc1ccc2oc(Nc3nnco3)nc2c1 [Example 135, 5-Chloro-N-(1,3,4-oxadiazol-2-yl)benzo[d]oxazol-2-amine] | ≤ 100 nM
FC(F)(F)c1ccc2oc(Nc3nnc(CN4CCOCC4)o3)nc2c1 [Example 70, N-(5-(morpholinomethyl)-1,3,4-oxadiazol-2-yl)-5-(trifluoromethyl)benzo[d]oxazol-2-amine] | ≤ 1000 nM
Cc1nnc(Nc2nc3ccc(C(F)(F)F)cc3o2)o1 [Example 104, N-(5-Methyl-1,3,4-oxadiazol-2-yl)-6-(trifluoromethyl)benzo[d]oxazol-2-amine] | ≤ 100 nM
Cc1nnc(Nc2nc3cc(C(F)(F)F)ccc3o2)s1 [Example 111, N-(5-Methyl-1,3,4-thiadiazol-2-yl)-5-(trifluoromethyl)benzo[d]oxazol-2-amine] | ≤ 1000 nM
CN(c1nc2ccccc2o1)c1nc2cnc(C(F)(F)F)cc2o1 [Example 169, N-(benzo[d]oxazol-2-yl)-N-methyl-6-(trifluoromethyl)oxazolo[4,5-c]pyridin-2-amine] | ≤ 100000 nM
Clc1ccc2nc(Nc3nnc(N4CCCC4)o3)oc2c1 [Example 198, 6-Chloro-N-(5-(pyrrolidin-1-yl)-1,3,4-oxadiazol-2-yl)benzo[d]oxa-zol-2-amine] | ≤ 10000 nM
CC(=O)N(C)Cc1nnc(Nc2nc3cc(C(F)(F)F)ccc3o2)o1 [Example 94, N-Methyl-N-((5-((5-(trifluoromethyl)benzo[d]oxazol-2-yl)amino)-1,3,4-oxadiazol-2-yl)methyl)acetamide] | ≤ 10000 nM
Clc1ccc2nc(Nc3nnc(CN4CCCC4)[nH]3)oc2c1 [Example 132, 6-Chloro-N-(5-(pyrrolidin-1-ylmethyl)-4H-1,2,4-triazol-3-yl)benzo[d]oxazol-2-amine] | ≤ 1000 nM
Fc1ccc2nc(Nc3nnco3)oc2c1 [Example 63, 6-Fluoro-N-(1,3,4-oxadiazol-2-yl)benzo[d]oxazol-2-amine] | ≤ 1000 nM
Clc1cccc2oc(Nc3nnc(CN4CCCC4)[nH]3)nc12 [Example 130, 4-Chloro-N-(5-(pyrrolidin-1-ylmethyl)-4H-1,2,4-triazol-3-yl)benzo[d]oxazol-2-amine] | ≤ 10000 nM
CC(C)NC(=O)c1csc(Nc2nc3cc(C(F)(F)F)ccc3o2)n1 [Example 4, N-Isopropyl-2-((5-(trifluoromethyl)benzo[d]oxazol-2-yl)amino)thiazole-4-carboxamide] | ≤ 1000 nM

SMILES | IC50
CN(C)Cc1nnc(Nc2nc3cc(C(F)(F)F)ccc3o2)[nH]1 [Example 136, N-(5-((Dimethylamino)methyl)-4H-1,2,4-triazol-3-yl)-5-(trifluoromethyl)benzo[d]oxazol-2-amine] | ≤ 1000 nM
N#Cc1nnc(Nc2nc3ccc(F)cc3o2)o1 [Example 218, 5-((6-Fluorobenzo[d]oxazol-2-yl)amino)-1,3,4-oxadiazole-2-carbonitrile] | ≤ 1000 nM
FC(F)(F)c1cc2nc(Nc3nnc[nH]3)oc2cc1Cl [Example 43, 6-Chloro-N-(4H-1,2,4-triazol-3-yl)-5-(trifluoromethyl)benzo[d]oxazol-2-amine] | ≤ 100 nM
O=C(NC1CC1)c1csc(Nc2nc3ccc(F)cc3o2)n1 [Example 19, N-Cyclopropyl-2-((6-fluorobenzo[d]oxazol-2-yl)amino)thiazole-4-carboxamide] | ≤ 1000 nM
Clc1ccc2nc(Nc3nnc(C4CCOC4)o3)oc2c1 (stereo not shown) [Example 199, 6-Chloro-N-(5-(tetrahydrofuran-3-yl)-1,3,4-oxadiazol-2-yl)benzo[d]oxa-zol-2-amine] | ≤ 1000 nM
FC(F)(F)c1ccc2oc(Nc3nnc(C(F)(F)F)o3)nc2c1 [Example 110, 5-(Trifluoromethyl)-N-(5-(trifluoromethyl)-1,3,4-oxadiazol-2-yl)benzo[d]oxazol-2-amine] | ≤ 100000 nM
Cn1cc(Nc2nc3cc(C(F)(F)F)ccc3o2)nn1 [Example 12, N-(1-Methyl-1H-1,2,3-triazol-4-yl)-5-(trifluoromethyl)benzo[d]oxazol-2-amine] | ≤ 10000 nM
CNC(=O)c1csc(Nc2nc3cc(C(F)(F)F)ccc3o2)n1 [Example 2, N-Methyl-2-((5-(trifluoromethyl)benzo[d]oxazol-2-yl)amino)thiazole-4-carboxamide] | ≤ 1000 nM
Clc1ccc2nc(Nc3nnc[nH]3)oc2c1 [Example 150, 6-Chloro-N-(4H-1,2,4-triazol-3-yl)benzo[d]oxazol-2-amine] | ≤ 1000 nM
Clc1ccc2oc(Nc3nc4cnccc4o3)nc2c1 [Example 164, N-(5-Chlorobenzo[d]oxazol-2-yl)oxazolo[4,5-c]pyridin-2-amine] | ≤ 100 nM
Cc1nnc(Nc2nc3c(F)cccc3[nH]2)o1 [Example 87, N-(4-Fluoro-1H-benzo[d]imidazol-2-yl)-5-methyl-1,3,4-oxadiazol-2-amine] | ≤ 1000 nM
O=C(NC1CC1)c1csc(Nc2nc3cc(Cl)ccc3o2)n1 [Example 17, 2-((5-Chlorobenzo[d]oxazol-2-yl)amino)-N-cyclopropylthiazole-4-carboxamide] | ≤ 1000 nM
Cc1sc(Nc2nc3cc(C(F)(F)F)ccc3o2)nc1C(=O)NC1CC1 [Example 25, N-Cyclopropyl-5-methyl-2-((5-(trifluoromethyl)benzo[d]oxazol-2-yl)amino)thiazole-4-carboxamide] | ≤ 1000 nM
CCOC(=O)c1noc(Nc2nc3ccc(Cl)cc3o2)n1 [Example 216, Ethyl 5-((6-chlorobenzo[d]oxazol-2-yl)amino)-1,2,4-oxadiazole-3-carboxylate] | ≤ 1000 nM
CC1CCN(Cc2nnc(Nc3nc4cc(C(F)(F)F)ccc4o3)o2)C1 (stereo not shown) [Example 78, N-(5-((3-methylpyrrolidin-1-yl)methyl)-1,3,4-oxadiazol-2-yl)-5-(trifluoromethyl)benzo[d]oxazol-2-amine] | ≤ 1000 nM
CC(C)c1nnc(Nc2nc3cc(C(F)(F)F)ccc3o2)o1 [Example 108, N-(5-Isopropyl-1,3,4-oxadiazol-2-yl)-5-(trifluoromethyl)benzo[d]oxazol-2-amine] | ≤ 1000 nM
Cc1noc(Nc2nc3cc(C(F)(F)F)ccc3o2)n1 [Example 31, N-(3-Methyl-1,2,4-oxadiazol-5-yl)-5-(trifluoromethyl)benzo[d]oxazol-2-amine] | ≤ 1000 nM
CNCc1nnc(Nc2nc3cc(C(F)(F)F)ccc3o2)o1 [Example 93, N-(5-((Methylamino)methyl)-1,3,4-oxadiazol-2-yl)-5-(trifluoromethyl)benzo[d]oxazol-2-amine] | ≤ 10000 nM
CCOC(=O)c1nnc(Nc2nc3ccc(Cl)cc3o2)o1 [Example 61, Ethyl 5-((6-chlorobenzo[d]oxazol-2-yl)amino)-1,3,4-oxadiazole-2-carboxylate] | ≤ 100 nM
Clc1cc2nc(Nc3nnco3)oc2cc1Cl [Example 152, 5,6-Dichloro-N-(1,3,4-oxadiazol-2-yl)benzo[d]oxazol-2-amine] | ≤ 100 nM
Cc1nnc(Nc2nc3cc(C(F)(F)F)ccc3[nH]2)s1 [Example 86, 5-Methyl-N-(5-(trifluoromethyl)-1H-benzo[d]imidazol-2-yl)-1,3,4-thiadiazol-2-amine] | ≤ 1000 nM
Cc1nnc(Nc2nc3c(C)cc(Cl)cc3o2)[nH]1 [Example 141, 6-Chloro-4-methyl-N-(5-methyl-4H-1,2,4-triazol-3-yl)benzo[d]oxazol-2-amine] | ≤ 1000 nM
Nc1ccc2nc(Nc3nnco3)oc2c1 [Example 195, N^2-(1,3,4-oxadiazol-2-yl)benzo[d]oxazole-2,6-diamine] | ≤ 10000 nM
